Consider 1 compound from article PMC9186361 (Drug Delivery, 2022).

The structures appear in SMILES notation. ≈ marks a conversion by molar mass, not a printed value.

The target of one data set is T1, thrombin (Homo sapiens, UniProt P00734).
T1 construct: Human thrombin was purchased from Hematologic Technologies Inc. (Essex Junction, VT); purchased Hematologic Technologies Inc. (Essex Junction, VT)
Kind of data set: Hydrolysis of chromogenic substrate S2238 by thrombin in vitro. It is filed as biochemical. Particulars: rutin up to 50 μM, 0.4 U/mL thrombin. The text has this: We tested the antithrombotic effects of NanoR and NaR ex vivo and in vivo. Thrombin plays a pivotal role in the coagulation process, and its amount reflects the hemostatic function (Mann, [2003]). […] In our clot formation study, the treatment with NanoR and NaR led to delayed clotting initiation time and a limited extent of clot formation. Again, NanoR exerted a stronger anticoagulatory effect than NaR, and excess exogenous PDI restored the coagulation function of pretreated plasma in clot formation assay. […] The link between obstructive atherosclerosis in the epicardial coronary arteries and myocardial ischemia is well established. In the past several decades, however, a number of studies have discovered that coronary microvascular dysfunction and remodeling contribute to myocardial ischemia in patients with normal coronary arteries. […] Recently, a novel two-stage mechanism for the action of FeCl3 in thrombus formation has been proposed. The first stage is based on colloidal chemistry principles whereby cells and plasma proteins adhere and aggregate due to the binding of negatively charged proteins to positively charged iron species. The extent of this stage is dependent on effective FeCl3 concentration, which is governed by intraluminal mass transport. […] (A) The hydrolysis of chromogenic substrate S2238 by different concentrations of thrombin was determined.

Another data set deals with PDI. The arrangement: method as in Jasuja et al., 2012. The settings on record: insulin-based turbidimetric assay; 95% CI 1.1–10.7 μM; ref Jasuja et al., 2012; read-out: IC50 of PDI inhibition; cited from earlier work.
A short description of data set [1]: Saturation solubility of rutin by shake flask method. It is filed as physicochemical. Particulars: thermodynamic from solid.

Consider `C[C@@H]1O[C@@H](OC[C@H]2O[C@@H](Oc3c(-c4ccc(O)c(O)c4)oc4cc(O)cc(O)c4c3=O)[C@H](O)[C@@H](O)[C@@H]2O)[C@H](O)[C@H](O)[C@H]1O` [rutin, quercetin-3-O-rutinoside], for which the “effect on thrombin activity (hydrolysis of S2238)” value on thrombin is “did not inhibit thrombin proteolytic activity”; on thrombin (listed as native rutin) it was “did not affect the activity of thrombin”. Moreover, in the data set on PDI, the IC50 is 6.1 µM. Besides, the solubility at 72 h in data set [1] (organic solvent or mixture, in 1,2-propylene glycol, 37 °C, 72 h) amounted to 32 ± 2 mg/mL (≈ 52.4 mM); in data set [1] (self-emulsifying formulation F2, 37 °C, in formulation F2), 24.3 ± 3.2 mg/mL (≈ 39.8 mM); in data set [1] (self-emulsifying formulation F5, 37 °C, in formulation F5), 19.2 ± 2.8 mg/mL (≈ 31.4 mM); in data set [1] (self-emulsifying formulation F7, 37 °C, in formulation F7), 16.2 ± 3.7 mg/mL (≈ 26.5 mM); in data set [1] (in Labrasol, 37 °C, 72 h), 5.2 ± 0.18 mg/mL (≈ 8.52 mM).
